The source of these data is patent publication US12209102B2, “Heterocyclic compounds and uses thereof” (Kumquat Biosciences Inc., priority 2022, dated 2025).

The structures appear in SMILES notation. Some results are limits rather than exact numbers.

The subject of one assay is SW620 cells. Briefly: Ras cellular assay, growth of cells with K-Ras G12V mutation (CellTiter-Glo). Type of assay: cell-based. As to conditions: Homo sapiens, SW-620; cell growth, Example 9, G12V mutation; read-out: IC50 against SW620 cells. In short, it runs like this: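 IC50 values came from a four-parameter fit of CellTiter-Glo viability, read roughly 6 days after dosing with e.g. a 10-point threefold dilution series. G12V-mutant SW620 cells (e.g. 800 per well) had been plated the previous day in RPMI-1640/10% heat-inactivated FBS, on tissue culture-treated or ultra-low attachment plates.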
Background: ATP-based viability assays read luminescence as a measure of living cells.

The next assay relates to A549 cells. As to the kind of experiment: Ras cellular assay, growth of cells with K-Ras G12S mutation (CellTiter-Glo). It is filed as cell-based. As to conditions: Homo sapiens, cell growth, Example 9, G12S mutation, read-out: IC50 against A549 cells. Summed up:
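Growth inhibition IC50 values come from four-parameter fits of CellTiter-Glo luminescence, read about 6 days after compound addition. G12S-mutant A549 cells (e.g. 800/well, RPMI-1640 + 10% heat-inactivated FBS) were plated in tissue-culture-treated or ultra-low-attachment 384-well format. Dosing began the following day with serial dilutions, e.g. 10 points, 3-fold.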

The target of a further assay is T1, K-Ras G12D (Homo sapiens, UniProt P01116, G12D).
T1 construct: made in house; host or cells: E. coli BL21 (DE3)
T1 sequence (P01116 1-188 isoform P01116-2 G12D): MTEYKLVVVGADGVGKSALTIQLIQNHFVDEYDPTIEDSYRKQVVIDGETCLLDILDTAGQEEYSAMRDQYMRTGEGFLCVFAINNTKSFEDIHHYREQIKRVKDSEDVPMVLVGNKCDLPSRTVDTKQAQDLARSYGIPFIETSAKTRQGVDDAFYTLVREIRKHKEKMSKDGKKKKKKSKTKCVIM
Briefly: HTRF resonance energy transfer assay, K-Ras G12D / SOS1 interaction. It is filed as biochemical. As to conditions: HTRF assay of Example 5; read-out: IC50 against K-Ras G12D. Summed up:
(§1)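 Buffer about 5 mM HEPES pH 7.4 with ~150 mM NaCl, ~1 mM DTT, 0.05% BSA, 0.0025% (v/v) Igepal. Protein constructs used at molarity matching the IC50 range studied (e.g. ~500 nM). FRET between tagged K-Ras and hSOS1 measured after short incubation.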
For orientation: TR-FRET usually uses a lanthanide donor and a delayed reading to cut background.

In a further assay the target is T2, K-Ras G12V (Homo sapiens, UniProt P01116, G12V).
T2 construct: made in house; host or cells: E. coli BL21 (DE3)
T2 sequence (P01116 1-188 isoform P01116-2 G12V): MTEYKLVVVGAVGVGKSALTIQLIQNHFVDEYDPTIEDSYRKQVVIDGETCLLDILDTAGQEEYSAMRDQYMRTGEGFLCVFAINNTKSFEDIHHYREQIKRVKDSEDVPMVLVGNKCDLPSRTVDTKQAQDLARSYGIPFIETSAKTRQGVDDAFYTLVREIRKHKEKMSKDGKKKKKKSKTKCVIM
Briefly: HTRF resonance energy transfer assay, K-Ras G12V / SOS1 interaction. As to conditions: HTRF assay of Example 5; read-out: IC50 against K-Ras G12V. It is filed as biochemical. Summed up:
as §1

In the next assay the target is T3, K-Ras G12S (Homo sapiens, UniProt P01116, G12S).
T3 construct: made in house; host or cells: E. coli BL21 (DE3)
T3 sequence (P01116 1-188 isoform P01116-2 G12S): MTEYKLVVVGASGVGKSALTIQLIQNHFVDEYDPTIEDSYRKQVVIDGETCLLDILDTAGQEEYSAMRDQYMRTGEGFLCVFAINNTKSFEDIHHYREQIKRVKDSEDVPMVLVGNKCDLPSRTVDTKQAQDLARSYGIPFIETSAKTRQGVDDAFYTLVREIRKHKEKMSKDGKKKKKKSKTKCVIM
Briefly: HTRF resonance energy transfer assay, K-Ras G12S / SOS1 interaction. Type of assay: biochemical. As to conditions: HTRF assay of Example 5; read-out: IC50 against K-Ras G12S. Summed up:
as §1

The next assay has as its target T4, K-Ras WT (Homo sapiens, UniProt P01116).
T4 construct: made in house; host or cells: E. coli BL21 (DE3)
Briefly: HTRF resonance energy transfer assay, K-Ras WT / SOS1 interaction. It is filed as biochemical. As to conditions: HTRF assay of Example 5; read-out: IC50 against K-Ras WT. Summed up: as §1

T4 sequence (P01116 1-188 isoform P01116-2): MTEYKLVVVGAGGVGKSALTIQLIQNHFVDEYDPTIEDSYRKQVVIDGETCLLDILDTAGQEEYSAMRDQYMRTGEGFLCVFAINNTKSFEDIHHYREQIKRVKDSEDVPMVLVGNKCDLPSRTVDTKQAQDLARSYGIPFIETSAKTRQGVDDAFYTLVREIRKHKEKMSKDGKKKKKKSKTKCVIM

On to `COC1CN(C(=O)N2CCC(N3C[C@H](C)Oc4c(Cl)c(-c5ccc(F)c6sc(N)c(C#N)c56)c(F)c5nc(OC[C@@]67CCCN6C[C@H](F)C7)nc3c45)CC2)C1` [Compound 935, 2-amino-4-((6S)-8-chloro-10-fluoro-2-(((2R,7aS)-2-fluorotetrahydro-1H-pyrrolizin-7a(5H)-yl)methoxy)-4-(1-(3-methoxyazetidine-1-carbonyl)piperidin-4-yl)-6-methyl-5,6-dihydro-4H-[1,4]oxazepino[5,6,7-de]quinazolin-9-yl)-7-fluorobenzo[b]thiophene-3-carbonitrile], for which the IC50 was under 5000 nM with SW620 cells; under 5000 nM in the assay with A549 cells; under 100 nM on K-Ras G12D; under 100 nM on K-Ras G12V; under 100 nM at K-Ras G12S; under 100 nM on K-Ras WT.

With `COCCN1CCC(N2CCOc3c(Cl)c(-c4ccc(F)c5sc(N)c(C#N)c45)c(F)c4nc(OC[C@@]56CCCN5C[C@H](F)C6)nc2c34)C1` (stereo partly drawn) [Compound 936, 2-amino-4-(8-chloro-10-fluoro-2-(((2R,7aS)-2-fluorotetrahydro-1H-pyrrolizin-7a(5H)-yl)methoxy)-4-(1-(2-methoxyethyl)pyrrolidin-3-yl)-5,6-dihydro-4H-[1,4]oxazepino[5,6,7-de]quinazolin-9-yl)-7-fluorobenzo[b]thiophene-3-carbonitrile], the concentration for half-maximal inhibition (IC50) was under 5000 nM with SW620 cells; under 5000 nM in the assay with A549 cells; under 100 nM on K-Ras G12D; under 100 nM at K-Ras G12V; under 100 nM on K-Ras G12S; under 100 nM on K-Ras WT.

Regarding `C#Cc1c(F)ccc2cc(O)cc(-c3nc4c5c(nc(OC[C@@]67CCCN6C[C@H](F)C7)nc5c3F)N(c3ccccc3)CCO4)c12` [Compound 948, 5-ethynyl-6-fluoro-4-(4-fluoro-2-(((2R,7aS)-2-fluorotetrahydro-1H-pyrrolizin-7a(5H)-yl)methoxy)-10-phenyl-9,10-dihydro-8H-7-oxa-1,3,6,10-tetraazacyclohepta[de]naphthalen-5-yl)naphthalen-2-ol], the IC50 with SW620 cells is under 5000 nM; in the assay with A549 cells it was under 5000 nM; on K-Ras G12D it was under 100 nM; on K-Ras G12V, under 100 nM; on K-Ras G12S it was under 100 nM; on K-Ras WT, under 100 nM.

`N#Cc1c(N)sc2c(F)ccc(-c3c(Cl)c4c5c(nc(OC[C@@]67CCCN6C[C@H](F)C7)nc5c3F)N(C3CCN(C(=O)C(F)Cl)C3)CCO4)c12` (stereo partly drawn) [Compound 949, 2-amino-4-(8-chloro-4-(1-(2-chloro-2-fluoroacetyl)pyrrolidin-3-yl)-10-fluoro-2-(((2R,7aS)-2-fluorotetrahydro-1H-pyrrolizin-7a(5H)-yl)methoxy)-5,6-dihydro-4H-[1,4]oxazepino[5,6,7-de]quinazolin-9-yl)-7-fluorobenzo[b]thiophene-3-carbonitrile]: the IC50 with SW620 cells is under 5000 nM; in the assay with A549 cells, under 5000 nM; at K-Ras G12D, under 100 nM; on K-Ras G12V it was under 100 nM; at K-Ras G12S, under 100 nM; on K-Ras WT, under 100 nM.

With `N#Cc1c(N)sc2c(F)ccc(-c3c(Cl)c4c5c(nc(OC[C@@]67CCCN6C[C@H](F)C7)nc5c3F)N(C3CC(F)(F)C3)CCO4)c12` [Compound 956, 2-amino-4-(8-chloro-4-(3,3-difluorocyclobutyl)-10-fluoro-2-(((2R,7aS)-2-fluorotetrahydro-1H-pyrrolizin-7a(5H)-yl)methoxy)-5,6-dihydro-4H-[1,4]oxazepino[5,6,7-de]quinazolin-9-yl)-7-fluorobenzo[b]thiophene-3-carbonitrile], the 50% inhibitory concentration (IC50) was under 5000 nM in the assay on SW620 cells; under 5000 nM in the assay on A549 cells; under 100 nM at K-Ras G12D; under 100 nM at K-Ras G12V; under 100 nM on K-Ras G12S; under 100 nM at K-Ras WT.

`C[C@H]1CN([C@@H]2CCOC2)c2nc(OC[C@@]34CCCN3C[C@H](F)C4)nc3c(F)c(-c4ccc(F)c5sc(N)c(C#N)c45)c(Cl)c(c23)O1` [Compound 958, 2-amino-4-((6S)-8-chloro-10-fluoro-2-(((2R,7aS)-2-fluorotetrahydro-1H-pyrrolizin-7a(5H)-yl)methoxy)-6-methyl-4-((R)-tetrahydrofuran-3-yl)-5,6-dihydro-4H-[1,4]oxazepino[5,6,7-de]quinazolin-9-yl)-7-fluorobenzo[b]thiophene-3-carbonitrile]: the concentration for half-maximal inhibition (IC50) in the assay with SW620 cells was under 5000 nM; in the assay on A549 cells it was under 5000 nM; at K-Ras G12D, under 100 nM; on K-Ras G12V, under 100 nM; on K-Ras G12S, under 100 nM; at K-Ras WT, under 100 nM.

On to `N#Cc1c(N)sc2c(F)ccc(-c3c(Cl)c4c5c(nc(OC[C@@]67CCCN6C[C@H](F)C7)nc5c3F)N(CC3(C#N)CCC3)CCO4)c12` [Compound 963, 2-amino-4-(8-chloro-4-((1-cyanocyclobutyl)methyl)-10-fluoro-2-(((2R,7aS)-2-fluorotetrahydro-1H-pyrrolizin-7a(5H)-yl)methoxy)-5,6-dihydro-4H-[1,4]oxazepino[5,6,7-de]quinazolin-9-yl)-7-fluorobenzo[b]thiophene-3-carbonitrile], for which the IC50 in the assay with SW620 cells is under 5000 nM; in the assay on A549 cells, under 5000 nM; at K-Ras G12D it was under 100 nM; on K-Ras G12V it was under 100 nM; at K-Ras G12S, under 100 nM; at K-Ras WT it was under 100 nM.

On to `N#Cc1c(N)sc2c(F)ccc(-c3c(Cl)c4c5c(nc(OC[C@@]67CCCN6C[C@H](F)C7)nc5c3F)N(C3CCN(C(=O)C(F)F)CC3)CCO4)c12` [Compound 971, 2-amino-4-(8-chloro-4-(1-(2,2-difluoroacetyl)piperidin-4-yl)-10-fluoro-2-(((2R,7aS)-2-fluorotetrahydro-1H-pyrrolizin-7a(5H)-yl)methoxy)-5,6-dihydro-4H-[1,4]oxazepino[5,6,7-de]quinazolin-9-yl)-7-fluorobenzo[b]thiophene-3-carbonitrile], for which the IC50 was under 5000 nM in the assay on SW620 cells; under 5000 nM with A549 cells; under 100 nM on K-Ras G12D; under 100 nM on K-Ras G12V; under 100 nM at K-Ras G12S; under 100 nM on K-Ras WT.

For `CC(COC(F)F)N1CCOc2c(Cl)c(-c3ccc(F)c4sc(N)c(C#N)c34)c(F)c3nc(OC[C@@]45CCCN4C[C@H](F)C5)nc1c23` (stereo partly drawn) [Compound 973, 2-amino-4-(8-chloro-4-(1-(difluoromethoxy)propan-2-yl)-10-fluoro-2-(((2R,7aS)-2-fluorotetrahydro-1H-pyrrolizin-7a(5H)-yl)methoxy)-5,6-dihydro-4H-[1,4]oxazepino[5,6,7-de]quinazolin-9-yl)-7-fluorobenzo[b]thiophene-3-carbonitrile], the IC50 with SW620 cells was under 5000 nM; in the assay with A549 cells, under 5000 nM; on K-Ras G12D, under 100 nM; on K-Ras G12V it was under 100 nM; on K-Ras G12S it was under 100 nM; at K-Ras WT it was under 100 nM.

Turning to `N#Cc1c(N)sc2c(F)ccc(-c3c(Cl)c4c5c(nc(OC[C@@]67CCCN6C[C@H](F)C7)nc5c3F)N(C3CC35CNC5)CCO4)c12` (stereo partly drawn) [Compound 990, 2-amino-4-(8-chloro-10-fluoro-2-(((2R,7aS)-2-fluorotetrahydro-1H-pyrrolizin-7a(5H)-yl)methoxy)-4-(5-azaspiro[2.3]hexan-1-yl)-5,6-dihydro-4H-[1,4]oxazepino[5,6,7-de]quinazolin-9-yl)-7-fluorobenzo[b]thiophene-3-carbonitrile], the IC50 in the assay with SW620 cells is under 5000 nM; in the assay on A549 cells, under 5000 nM; on K-Ras G12D, under 100 nM; at K-Ras G12V, under 100 nM; on K-Ras G12S, under 100 nM; on K-Ras WT, under 100 nM.

As for `C[C@H]1COc2c(Cl)c(-c3ccc(F)c4sc(N)c(C#N)c34)c(F)c3nc(OC[C@@]45CCCN4C[C@H](F)C5)nc(c23)N1C1CCN(C(=O)C2CC2C#N)CC1` (stereo partly drawn) [Compound 995, 2-amino-4-((5S)-8-chloro-4-(1-(2-cyanocyclopropane-1-carbonyl)piperidin-4-yl)-10-fluoro-2-(((2R,7aS)-2-fluorotetrahydro-1H-pyrrolizin-7a(5H)-yl)methoxy)-5-methyl-5,6-dihydro-4H-[1,4]oxazepino[5,6,7-de]quinazolin-9-yl)-7-fluorobenzo[b]thiophene-3-carbonitrile], the IC50 was under 5000 nM in the assay on SW620 cells; under 5000 nM with A549 cells; under 100 nM at K-Ras G12D; under 100 nM at K-Ras G12V; under 100 nM at K-Ras G12S; under 100 nM on K-Ras WT.

Broadly, the IC50 is the concentration needed to halve the response being measured.
